Structures can show the parent of a compound that is named as a salt. Where two headings read alike, the source gives them in different places.
What was measured:
[1] = test system: HeLa-ACE2 cells; test: cells; format: cell-based, human; conditions: Homo sapiens, HeLa-ACE2; read-out: HeLa-ACE2 TOA cell count EC50 GeoMean
[2] = test system: SARS-CoV-2; test: microbe, parasite or virus in culture; format: cell-based; conditions: for Emax: Severe acute respiratory syndrome coronavirus 2, HeLa-ACE2, 24 h, curve plateau at infinite concentration, read-out: HeLa-ACE2 CoV-2 Sinf Average; for EC50: Severe acute respiratory syndrome coronavirus 2, HeLa-ACE2, detail block, read-out: HeLa-ACE2 CoV-2 EC50 GeoMean
[3] = test system: Calu-3 cells; test: cells; conditions: Homo sapiens; for EC50: Calu-3, read-out: Calu-3 cell count EC50 GeoMean, detail block; for Emax: Calu-3, 48 h, read-out: Calu-3 cell count Sinf Average
[4] = test system: HepG2; test: HepG2 72 h CellTiter-Glo cytotoxicity; conditions: 72 h
[5] = HepG2 72 h CellTiter-Glo cytotoxicity; conditions: human, HepG2 cells
[6] = test system: SARS-CoV-2; test: microbe, parasite or virus in culture; format: cell-based; conditions: for EC50: Severe acute respiratory syndrome coronavirus 2, HeLa-ACE2, detail block, read-out: HeLa-ACE2 TOA CoV-2 EC50 GeoMean; for Emax: Severe acute respiratory syndrome coronavirus 2, HeLa-ACE2, 10 h, curve plateau at infinite concentration, read-out: HeLa-ACE2 TOA CoV-2 Sinf Average
[7] = test system: HeLa-ACE2 cells; test: cells; conditions: Homo sapiens; for Emax: HeLa-ACE2, 24 h, read-out: HeLa-ACE2 cell count Sinf Average; for EC50: HeLa-ACE2, read-out: HeLa-ACE2 cell count EC50 GeoMean, detail block
[8] = test system: HeLa-ACE2 cells; test: Uninfected HeLa-ACE2 24 h live/dead cytotoxicity counter screen; format: cell-based, human; conditions: curve plateau at infinite concentration
[9] = as above; format: cell-based, human; conditions: human, uninfected HeLa-ACE2 cells, detail block; read-out: HeLa-ACE2 uninfected cytotoxicity CC50 GeoMean
[10] = HEK293T 72 h CellTiter-Glo cytotoxicity; conditions: human, HEK293T cells
[11] = test system: HEK293T; test: HEK293T 72 h CellTiter-Glo cytotoxicity; conditions: 72 h
[12] = test system: SARS-CoV-2; test: microbe, parasite or virus in culture; format: cell-based; conditions: for EC50: Severe acute respiratory syndrome coronavirus 2, Calu-3, detail block, read-out: Calu-3 CoV-2 EC50 GeoMean; for Emax: Severe acute respiratory syndrome coronavirus 2, Calu-3, 48 h, curve plateau at infinite concentration, read-out: Calu-3 CoV-2 Sinf Average
[13] = in vitro; conditions: human, Calu-3 uninfected cytotoxicity CC50 GeoMean
[14] = test system: Calu-3 cells; test: Uninfected Calu-3 48 h Cell-Titer Glo cytotoxicity counter screen; conditions: curve plateau at infinite concentration
[15] = test system: Calu-3 cells; conditions: for Calu-3 uninfected cytotoxicity Sinf Average: human, 48 h
[16] = test system: HEK293T; conditions: human
[17] = test system: HepG2; conditions: human
[18] = Uninfected Calu-3 48 h Cell-Titer Glo cytotoxicity counter screen; conditions: human, uninfected Calu-3 cells, Calu-3 uninfected cytotoxicity CC50 GeoMean, detail block
[19] = test system: SARS-CoV-2; format: cell-based; conditions: combination with remdesivir
[20] = selectivity index, uninfected HeLa-ACE2 CC50 / SARS-CoV-2 EC50
[21] = TOA EC50 / HeLa-ACE2 SARS-CoV-2 EC50
[22] = selectivity index, uninfected Calu-3 CC50 / Calu-3 SARS-CoV-2 EC50

| Compound | EC50 [1] [µM] | Emax [2] [%] | EC50 [2] [µM] | HeLa-ACE2 SI [2, 20] | EC50 [3] [µM] | HepG2 72-hour cytotoxicity Sinf Average [4] [%] | EC50 [6] [µM] | EC50 [7] [µM] | HeLa-ACE2 uninfected cytotoxicity Sinf Average [8] [%] | CC50 at 24 h [9] [µM] | HEK293T 72-hour cytotoxicty Sinf Average [11] [%] | EC50 [12] [µM] | Emax [6] [%] | TOA:HeLa-ACE2 EC50 Ratio [6, 21] | uninfected Calu-3 CC50 [15] | Calu-3 uninfected cytotoxicity Sinf Average [15] [%] | HEK293T 72-hour cytotoxicty Sinf Average ([16]; 72 h) [%] | CC50 at 48 h [13] [µM] | HepG2 72-hour cytotoxicity Sinf Average ([17]; 72 h) [%] | Emax [3] [%] | also measured |
| --- | --- | --- | --- | --- | --- | --- | --- | --- | --- | --- | --- | --- | --- | --- | --- | --- | --- | --- | --- | --- | --- |
| CCN(CC)Cc1cc(Nc2ccnc3cc(Cl)ccc23)ccc1O [Amodiaquine] | > 9.59 | 102 | 1.19 | > 33.48 | > 9.85 | -80 | > 9.59 | > 0.865 | -89 | > 39.8 | -87 | > 9.85 |  |  |  |  |  |  |  |  | CC50 at 72 h [5]: 3.76 µM; TOA:HeLa-ACE2 EC50 Ratio [6]: 8.060; Emax [7]: -26%; CC50 at 72 h [10]: 10 µM |
| CN1[C@@H]2CC[C@H]1C[C@@H](N1Cc3ccc4ccccc4c3C1=O)C2 [CR-3124] | > 9.59 | 100 | 5.97 |  | > 9.98 | -100 | > 9.59 | > 9.59 | -100 | > 39.8 | -100 | > 9.98 | 100 | 1.607 |  |  |  |  |  |  | HeLa-ACE2 SI [2]: > 6.67; CC50 ([13]; detail block): > 29.9 µM; Calu-3 uninfected cytotoxicity Sinf Average [14]: -100% |
| COc1ccc2cc1Oc1ccc(cc1)C[C@H]1c3c(cc4c(c3Oc3cc5c(cc3OC)CCN(C)[C@@H]5C2)OCO4)CCN1C [Cepharanthine] | > 9.59 | 98 | 0.988 |  | > 9.98 |  | > 9.5 | > 9.59 | -100 | > 25.4 |  | > 9.98 | 100 | 9.613 | > 27.816 ×÷ 1.096 (n=3) μM | -100 | -103 | > 27.8 | -100 |  | HeLa-ACE2 SI [2]: > 25.76; Calu-3 SI [12]: 2.79 |
| CCN(CC)CCCC(C)Nc1ccnc2cc(Cl)ccc12 (stereo not shown) [Chloroquine, DualTPharma, Chloroquine] | > 9.59 | 107 | 0.9 |  | > 9.85 |  | > 9.59 | > 9.59 | -100 | > 39.8 |  | > 9.85 |  |  |  |  |  |  |  |  | HEK293T 72-hour cytotoxicty Sinf Average [16]: -100%; HepG2 72-hour cytotoxicity Sinf Average [17]: -100% |
| CCCCCCOC(=O)NC(=N)c1ccc(NCc2nc3cc(C(=O)N(CCC(=O)OCC)c4ccccn4)ccc3n2C)cc1 [Dabigatran etexilate mesilate] | > 9.59 | 100 | 4.08 |  | > 9.98 | -96 | > 9.51 | > 9.59 | -97 | > 26.5 | -101 | > 9.98 | 100 | 2.329 |  |  |  |  |  | 100 | HeLa-ACE2 SI [2]: > 6.50; CC50 at 72 h [5]: 13.1 µM; CC50 at 72 h [10]: 8.53 µM; CC50 at 48 h [18]: > 29.9 µM; Calu-3 uninfected cytotoxicity Sinf Average [14]: -100% |
| CN1CCN(c2ccc(C(=O)NCc3cnc(C#N)nc3NCC(C)(C)C)cc2)CC1 [Dutacatib] | > 9.59 | 101 | 2.69 | > 13.43 | > 9.98 |  | > 9.36 | > 9.59 | -100 | > 36.1 |  | > 9.98 | 100 | 3.480 | > 29.867 ×÷ 1.001 (n=3) μM | -100 | -100 | > 29.9 | -100 | 100 | HeLa-ACE2 synergy score with remdesivi [19]: 2.955 δ; Emax [12]: 96% |
| CCc1ccc2c(c1)N(CC(C)CN(C)C)c1ccccc1S2 (stereo not shown) [Ethylisobutrazine hydrochloride] | > 9.59 | 100 | 2 | 10.48 | > 9.98 | -100 | 3.77 | > 9.59 | -100 | 20.9 | -104 | > 9.98 | 100 |  |  |  |  |  |  |  | CC50 at 72 h [5]: 14.1 µM; TOA:HeLa-ACE2 EC50 Ratio [6]: 1.889; Emax [7]: 100%; CC50 at 72 h [10]: 10.3 µM; CC50 at 48 h [18]: 15.7 µM; Calu-3 uninfected cytotoxicity Sinf Average [14]: -100%; Emax [12]: 100%; Calu-3 SI [12, 22]: 1.57 |
| N#Cc1c(N)nc(N)nc1N[C@H](c1nc2c(F)ccc(Cl)c2c(=O)n1-c1cccnc1)C1CC1 [GS-9901] | > 9.59 | 100 | 3.81 |  | > 9.98 |  | > 9.59 | > 9.59 | -100 | > 31.1 |  | > 9.98 |  | 2.519 | > 29.867 ×÷ 1.001 (n=3) μM |  | -97 | > 29.9 | -100 | -100 | HeLa-ACE2 SI [2]: > 8.17; Emax [7]: 100% |
| COC(CNCC(C)C)COc1c(C)csc1C(=O)CCc1ccccc1 (stereo not shown) [LG-6-101] | > 9.59 | 100 | 3.46 |  | > 9.98 |  | > 9.18 | > 9.59 | -100 | > 35.6 |  | > 9.98 | 100 | 2.655 | > 29.079 ×÷ 1.048 (n=3) μM | -100 | -100 | > 29.1 | -100 | 100 | Emax [12]: 83%; Calu-3 SI [12, 22]: 2.91 |
| O=C(CCCN1CCN(c2ccc(F)cc2)CC1)NC1c2ccccc2CSc2ccccc21 (stereo not shown) [Monatepil] | > 9.61 | 100 | > 7.79 | > 5.01 | > 9.98 |  | 5.71 | > 9.6 | -100 | > 39 |  | > 9.98 | 100 | 0.732 | > 29.9 ×÷ 1.002 (n=4) μM | -100 | -46 | > 29.9 |  | -100 | Emax [12]: 100% |
| N#Cc1ccc2c(c1)[C@H]1CN(CCCCNC(=O)c3ccc(-c4ccccc4)cc3)C[C@@H]1CO2 [S-33084] | > 9.59 | 100 | 3.91 | > 6.34 | > 9.98 |  | 3.93 | > 9.59 | -100 | > 24.8 |  | > 9.98 | 100 | 1.005 | > 22.75 ×÷ 1.601 (n=3) μM | -100 | -100 | > 22.8 | -100 |  | Calu-3 SI [12, 22]: 2.28 |

Reference: publication PMC8175350, “Drug repurposing screens identify chemical entities for the development of COVID-19 interventions” (Nature Communications, 2021)
